Our source for the IC50 values is US20250066363A1, “Bicyclic DGK Inhibitors” (Incyte Corporation, priority 2023, published 2025).

Experiment [1] addresses DGKζ (Homo sapiens (Human), UniProt Q13574). In words: In vitro DGKζ inhibition assay (ADP-Glo). Type of experiment: biochemical. Particulars: second column of Table A, head printed DGKα, presumably DGKζ; His-tagged human recombinant DGKζ 0.4 nM, 30 μM ATP, 20 μM DLG. The protocol:
(§1) The DGKα and DGKζ biochemical reactions were performed using His-tagged human recombinant enzymes (Signal Chem, DGKα, #D21-10BH; DGKζ, #D30-1OH)) and DLG (Dilauroyl-sn-glycerol) lipid substrate (Signal Chem, #D430-59). ADP-Glo assay was performed using ADP-Glo™ kinase Assay kit (Promega, #V9104). The reactions were carried out in assay buffer containing 40 mM Tris, pH 7.5, 0.1% CHAPS, 0.1% Prionex, 40 mM NaCl, 5 mM MgCl2, 1 mM CaCl2, and 1 mM DTT. DGKα reactions contained 0.1 nM DGKα, 50 μM ATP, and 20 μM DLG. And DGKζ reactions contained 0.4 nM DGKζ, 30 μM ATP, and 20 μM DLG.
(§2) For compound inhibition studies, 40 nL test compound in DMSO was added to wells of white polystyrene plates in 384-well (Greiner, #784075) or 1536-well format (Greiner, #782075). Compounds were added with top concentration of 2 mM with 11 point, 3-fold dilution series. Enzyme solution (contains 2× DGK enzyme concentration in 1× assay buffer) was added to the plate in 2 μL/well volume, followed by 2 μL/well of substrate solution (contains 2× concentration of ATP and DLG substrate in 1× assay buffer). Plates were then centrifuged for 1 min at 1200 RPM and sealed or lidded. For 4 μL reaction volume, test compounds were therefore diluted 100× to final top concentration of 20 μM. After 90 minute incubation, reactions were quenched by addition of 2 μL/well Promega ADP-Glo Reagent, followed by centrifugation and lidding. After 60 min incubation, 2 μL/well Promega Kinase Detection Reagent was added, plates centrifuged, and incubated for 30 min. Plates were then read using Luminescence method on BMG PHERAstar FSX plate reader. Percent inhibition was calculated and IC50s were determined using 4-parameter fit in Genedata Screener. Labcyte Echo acoustic dispenser was used for compound addition, and Formulatrix Tempest liquid handler was used for all reagent dispenses.
For orientation: ADP-Glo turns the ADP formed in a reaction into a luminescent signal.

Experiment [2] deals with DGKα (Homo sapiens (Human), UniProt P23743). In words: In vitro DGKα inhibition assay (ADP-Glo). Type of experiment: biochemical. Particulars: first column of Table A; His-tagged human recombinant DGKα 0.1 nM, 50 μM ATP, 20 μM DLG. The protocol: as §1, §2
Chain of DGKα (P23743 whole entry): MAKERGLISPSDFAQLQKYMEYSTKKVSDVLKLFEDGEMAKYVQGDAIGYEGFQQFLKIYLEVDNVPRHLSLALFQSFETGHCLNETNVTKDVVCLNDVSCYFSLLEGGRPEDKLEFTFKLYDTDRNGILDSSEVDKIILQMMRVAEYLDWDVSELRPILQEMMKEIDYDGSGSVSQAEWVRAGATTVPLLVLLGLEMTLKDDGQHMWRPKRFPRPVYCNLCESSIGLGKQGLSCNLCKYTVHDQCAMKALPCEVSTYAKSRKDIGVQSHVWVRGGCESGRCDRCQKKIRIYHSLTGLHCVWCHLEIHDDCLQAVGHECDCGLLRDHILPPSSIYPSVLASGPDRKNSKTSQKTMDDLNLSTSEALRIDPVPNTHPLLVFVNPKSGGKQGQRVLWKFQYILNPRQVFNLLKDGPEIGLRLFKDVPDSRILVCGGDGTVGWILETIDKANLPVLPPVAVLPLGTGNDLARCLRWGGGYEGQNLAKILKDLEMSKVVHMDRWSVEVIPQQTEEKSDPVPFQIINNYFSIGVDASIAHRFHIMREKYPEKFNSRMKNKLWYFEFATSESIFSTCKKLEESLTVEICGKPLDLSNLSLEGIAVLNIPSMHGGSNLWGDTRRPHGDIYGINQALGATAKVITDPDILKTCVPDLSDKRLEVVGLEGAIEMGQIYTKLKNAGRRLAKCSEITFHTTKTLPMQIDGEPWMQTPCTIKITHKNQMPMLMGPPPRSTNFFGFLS

Chain of DGKζ (Q13574 whole entry): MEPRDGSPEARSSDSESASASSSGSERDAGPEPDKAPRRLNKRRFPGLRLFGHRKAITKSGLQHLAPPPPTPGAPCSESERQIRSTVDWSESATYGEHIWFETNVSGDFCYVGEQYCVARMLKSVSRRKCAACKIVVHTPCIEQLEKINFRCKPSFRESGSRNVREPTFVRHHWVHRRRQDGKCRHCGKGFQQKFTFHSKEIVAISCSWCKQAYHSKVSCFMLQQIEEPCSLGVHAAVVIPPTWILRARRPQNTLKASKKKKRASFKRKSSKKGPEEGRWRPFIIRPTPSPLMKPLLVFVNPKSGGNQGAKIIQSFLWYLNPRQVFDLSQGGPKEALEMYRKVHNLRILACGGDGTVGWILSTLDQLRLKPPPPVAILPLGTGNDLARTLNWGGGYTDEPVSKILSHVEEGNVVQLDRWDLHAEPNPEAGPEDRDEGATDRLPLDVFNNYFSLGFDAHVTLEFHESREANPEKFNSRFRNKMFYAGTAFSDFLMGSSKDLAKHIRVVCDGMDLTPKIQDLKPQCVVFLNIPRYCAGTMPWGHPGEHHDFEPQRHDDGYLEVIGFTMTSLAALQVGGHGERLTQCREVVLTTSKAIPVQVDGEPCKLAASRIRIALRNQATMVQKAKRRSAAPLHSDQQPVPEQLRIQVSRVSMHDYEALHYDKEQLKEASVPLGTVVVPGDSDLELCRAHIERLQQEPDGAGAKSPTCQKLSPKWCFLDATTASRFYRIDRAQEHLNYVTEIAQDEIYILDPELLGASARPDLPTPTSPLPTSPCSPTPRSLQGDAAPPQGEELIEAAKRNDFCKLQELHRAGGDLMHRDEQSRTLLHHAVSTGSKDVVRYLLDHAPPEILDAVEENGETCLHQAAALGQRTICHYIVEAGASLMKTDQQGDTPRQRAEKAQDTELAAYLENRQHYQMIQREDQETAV

In general, IC50 refers to the concentration at which inhibition is half-maximal. With `C[C@@H]1CN(c2nc(=O)n(C)c3c2nnn3C[C@@H]2CCCO2)[C@@H](C)CN1C(c1ccc(C(F)(F)F)cn1)c1ccc(C(F)(F)F)cn1` [Example 32, 7-((2S,5R)-4-(Bis(5-(trifluoromethyl)pyridin-2-yl)methyl)-2,5-dimethylpiperazin-1-yl)-4-methyl-3-(((S)-tetrahydrofuran-2-yl)methyl)-3,4-dihydro-5H-[1,2,3]triazolo[4,5-d]pyrimidin-5-one], the IC50 in experiment [1] and in experiment [2] was not above 10 nM throughout.
On to `CC[C@@H]1CN(c2nc(=O)n(C)c3c2nnn3C[C@H]2CCCO2)[C@@H](C)CN1[C@@H](c1ccc(Cl)cc1)[C@@H]1CC1(F)F` [Example 23, 7-((2S,5R)-4-((R)-(4-chlorophenyl)((S)-2,2-difluorocyclopropyl)methyl)-5-ethyl-2-methylpiperazin-1-yl)-4-methyl-3-(((R)-tetrahydrofuran-2-yl)methyl)-3,4-dihydro-5H-[1,2,3]triazolo[4,5-d]pyrimidin-5-one], for which the IC50 in experiment [1] and in experiment [2] was not above 10 nM throughout.
Consider `CC[C@@H]1CN(c2nc(=O)n(C)c3c2nc(C)n3C[C@@H]2CCCO2)[C@@H](C)CN1C(c1ccc(C(F)(F)F)c(F)c1)C(C)C` (single isomer, unassigned) [Example 46], for which the IC50 in experiment [1] and in experiment [2] was not above 10 nM each time.
Take `C[C@@H]1CN(c2nc(=O)n(C)c3c2cnn3C)[C@@H](C)CN1C(c1ccc(F)cc1)c1ccc(F)cc1` [Example 7, 4-((2S,5R)-4-(Bis(4-fluorophenyl)methyl)-2,5-dimethylpiperazin-1-yl)-1,7-dimethyl-1,7-dihydro-6H-pyrazolo[3,4-d]pyrimidin-6-one]: the figures for the IC50 in experiment [1] and in experiment [2] were more than 1000 nM and not above 10 nM, respectively.
For `Cc1nc2c(N3C[C@@H](C)N([C@@H](c4ccc5ccc(C(F)(F)F)cc5n4)C(C)C)C[C@@H]3C)nc(=O)n(C)c2n1C[C@@H]1CCCO1` [Example 49, 6-((2S,5R)-2,5-Dimethyl-4-((R)-2-methyl-1-(7-(trifluoromethyl)quinolin-2-yl)propyl)piperazin-1-yl)-3,8-dimethyl-9-(((S)-tetrahydrofuran-2-yl)methyl)-3,9-dihydro-2H-purin-2-one], in that order: not above 10 nM and not above 10 nM.
Turning to `Cc1nc2c(N3C[C@@H](C)N([C@H](c4ccc(C(F)(F)F)cc4)C(C)C)C[C@@H]3C)nc(=O)n(C)c2n1C[C@@H]1CCCO1` [Example 53, 6-((2S,5R)-2,5-Dimethyl-4-((S)-2-methyl-1-(4-(trifluoromethyl)phenyl)propyl)piperazin-1-yl)-3,8-dimethyl-9-(((S)-tetrahydrofuran-2-yl)methyl)-3,9-dihydro-2H-purin-2-one], the IC50 in experiment [1] and in experiment [2] was not above 100 nM throughout.
Take `CC[C@@H]1CN(c2nc(=O)n(C)c3c2nc(C)n3C[C@@H]2CCCO2)[C@@H](C)CN1[C@@H](CC)c1ccc(C(F)(F)F)cc1` [Example 28, 6-((2S,5R)-5-Ethyl-2-methyl-4-((S)-1-(4-(trifluoromethyl)phenyl)propyl)piperazin-1-yl)-3,8-dimethyl-9-(((S)-tetrahydrofuran-2-yl)methyl)-3,9-dihydro-2H-purin-2-one]: the IC50 in experiment [1] and in experiment [2] was not above 10 nM throughout.
With `CC[C@@H]1CN(c2nc(=O)n(C)c3c2nnn3C[C@H]2CCCO2)[C@@H](C)CN1[C@@H](CC)c1ccc(C(F)(F)F)cc1` [Example 30, 7-((2S,5R)-5-Ethyl-2-methyl-4-((S)-1-(4-(trifluoromethyl)phenyl)propyl)piperazin-1-yl)-4-methyl-3-(((R)-tetrahydrofuran-2-yl)methyl)-3,4-dihydro-5H-[1,2,3]triazolo[4,5-d]pyrimidin-5-one], the IC50 in experiment [1] and in experiment [2] was not above 10 nM throughout.
As to `Cc1nc2c(N3C[C@@H](C)N(C(c4ccc(C(F)(F)F)cc4)C4CC(F)(F)C4)C[C@@H]3C)nc(=O)n(C)c2n1C[C@H]1OCC[C@H]1O` (single isomer, unassigned) [Example 35], the IC50 in experiment [1] and in experiment [2] was not above 10 nM each time.
